Data on nine substances can be found in patent US7674464B2, “Intracellular interleukin-1 receptor antagonists” (The University of Tennessee Research Foundation, priority 2004, dated 2010).

In data set [1] the test system is collagenase (MMP-1). The experiment in a line: IL-1β-induced collagenase (MMP-1) production by dermal fibroblasts, ELISA. It counts as cell-based, human. The settings on record: added 2 hours before IL-1β, 48 hrs, IL1β + PBS 1351, PBS + PBS 556. The method, then: Confluent fibroblast monolayer cultures were treated for 2 hr with IL-1ra peptides and cultured for 48 h with hrIL-1β. Collagenase protein was measured in culture supernatants by ELISA.
Furthermore, the effect of the IL-1ra peptides on the stimulation of MMP-1 and TIMP expression was examined. Briefly, fibroblasts were seeded in wells of Flacon 3008 multiwell plates (5×10^4 cells/500 μl Maintenance Medium). After 72 h culture, the medium was removed from each well and replaced with Maintenance Medium (450 μl) containing 5% FCS and 25 μl of IL-1ra peptides or hrsIL-1ra peptide being tested. Two hrs later 25 μl IL-1β (100 pg/ml) was added to appropriate wells. Plates were incubated for 48 h, at which time medium was collected from each well. Levels of TIMP and collagenase produced by fibroblasts during culture were measured by specific ELISA techniques as previously described (Postlethwaite et al., 1988).

The test system of data set [2] is collagen-induced arthritis (CIA). The data set is described as follows: collagen-induced arthritis in DBA/1 lac mice, peptides by s.c. injection. Type of data set: in vivo. The settings on record: s.c. 227 μg/kg once daily, 5 consecutive days each week, day 22 to day 50, vs control peptide IL-1ra 37-30. Here is the method:
Groups of 12 mice were treated with subcutaneous injections of NLS-IL-1ra 1-35 (SEQ ID NO: 18), NLS-IL-1ra 30-37 ([…]) or IL-1ra 37-30 (SEQ ID NO: 43) as a control beginning day 22 to day 50. Mice were injected once each consecutive 5 days out of each week. Mean arthritic score is shoon. P values are determined by Students' t test.
The peptides disclosed in table 11 were delivered to the mice using 2 approaches. The first approach consisted of daily injections for 5 days each week via the subcutaneous (s.c.) route after the first appearance of clinical arthritis. The second approach consisted of continuous delivery via a subcutaneously implanted osmotic pump. For these studies, the following protocols were used: Since a smaller fragment of the 37 amino acid IL-1ra peptide containing amino acids LVAGY (SEQ ID NO: 42) inhibit IL-1β, TNFα, and bFGF induction of MMP-1 in human fibroblasts in vitro, effects of several peptides containing the LVAGY (SEQ ID NO: 42) sequence (Table 11) on CIA in mice was examined.
For s.c. injected route of delivery, 36 six-week old female DBA-1 lac mice were immunized with a stable emulsion of complete Freund's adjuvant (CFA) and native bovine II prepared as previously described (Seyer et al., 1989). Each mouse received 100 μg CII in 50 μl of the CFA CII emulsion intradermally at the base of the tail. Beginning day 14 post immunization, mice were examined for the presence of paw swelling as an indication of the onset of arthritis. On day 21 post immunization, the first paw swelling occurred in 2 mice and on day 22 post immunization, mice were divided into groups of 12. NLS-IL-1ra 1-35 (SEQ ID NO: 18), NSL-IL-1ra 30-37 (SEQ ID NO: 43), and reverse control peptide IL-1ra 37-30 (SEQ ID NO: 44) were separately administered s.c. to groups of 12 mice beginning on day 22 post immunization to day 50 post immunization. […] Results described herein are expressed as the mean arthritic score per mouse arrived at by adding up the total joint scores for mice in each group divided by the number of mice in the group.

Data set [3] deals with collagenase. The experiment in a line: TNF alpha-stimulated fibroblast collagenase production. Type of data set: cell-based. The settings on record: TNF alpha + PBS 9391, PBS 645. Here is the method: (§1) To potentially enhance translocation of the peptide, a nuclear localization sequence (NLS), namely, KKKMEKR from human IL-1β was added to the peptide with SEQ ID NO: 13 and the effect of the peptide with and without the NLS on collagenase production was assessed. In this case the cultures were stimulated with TNF-α or basic fibroblast growth factor (bFGF).

The test system of data set [4] is collagen-induced arthritis (CIA). The experiment in a line: collagen-induced arthritis in DBA/1 mice, peptide by osmotic pump. It counts as in vivo. The method, then:
The mice (total=20) were immunized by subcutaneous injection at the base of the tail with 100 μg/ml of bovine CII in CFA at day 0. At day 20, an Alzet Osmotic pump-2004 containing 1.67 mg NLS-IL-1ra (1-35) peptide (SEQ ID NO: 18) in 200 microliters D5W solvent (n=10) or the solvent alone (n=10) was surgically inserted subcutaneously in each of 10 mice. Beginning at 21 days after immunization, mice were monitored for the severity (FIG. 40A) and incidence (FIG. 40B) of arthritis.
For osmotic pump delivery of peptide, at day 20 following immunization, an Alzet Osmotic pump-2004 (Durect Corporation, Cupertino, Calif.), containing 1.67 mg NLS-ILra 1-35 peptide in 200 microliters D5W solvent was surgically inserted subcutaneously in each of 10 mice. According to the manufacturer's specifications, the pumps are designed to inject constantly for 4 weeks at the speed of […] 6 μl (50 μg peptide)/day. Each of the 10 control mice received a pump containing same amount D5W only. Animals were periodically monitored for incidence and severity of arthritis and scored as described above.

In data set [5] the test system is collagenase. The experiment in a line: bFGF-stimulated fibroblast collagenase production. It counts as cell-based. The settings on record: bFGF + PBS 5058, PBS 645. The method, then:
as §1

Data set [6] relates to icIL-1ra type 1 mRNA. The data set is described as follows: antisense oligonucleotide against icIL-1ra type 1 in HF-icIL-1ra fibroblasts, MMP-1 mRNA by RT-PCR. Type of data set: cell-based, human. As to conditions: for MMP-1 mRNA levels: HF-icIL-1ra, vs PBS, empty liposome, scrambled oligonucleotide. Here is the method:
Phosphorothioate-derivatized antisense oligodeoxynucleotide complimentary to −6 to +12 of the natural icIL-1ra was synthesized and purified by HPLC Integrated DNA Technologies Inc. (Coralville, Iowa). As a control, antisense oligonucleotide with a scrambled sequence was prepared by a similar method. Fibroblasts over-expressing icIL-1ra type 1 were transfected with […] of antisense icIL-1ra type 1 oligonucleotide (24 h prior to stimulation with 100 pg/ml of IL-1 beta) using LipofectAMINE™ protocol. PBS and LipofectAMINE™ alone served as additional controls. The cells were harvested 12-18 h after stimulation for RNA extraction. Total RNA was reverse transcribed and MMP-1 mRNA was estimated by semi-quantitative RT-PCR.
Fibroblasts over-expressing icIL-1ra type 1 were transfected with different concentrations of antisense icIL-1ra type 1 oligonucleotide (24 h prior to stimulation with IL-1β) using LipofectAMINE. PBS alone, LipofectAMINE alone and treatment with oligonucleotide having scrambled sequence served as controls. The cells were harvested 12-18 h after stimulation for RNA extraction. Total RNA was reverse transcribed and MMP-1 mRNA was estimated by real time RT-PCR. The values indicate mean±SD of three independent experiments performed on same batch of transfected geneticin selected fibroblasts (LIPO: LipofectAMINE alone, ANTIS-LIP: Antisense icIL-1ra oligonucleotide+LipofectAMINE, SCRAM-LIP: Scrambled oligonucleotide+LipofectAMINE).
Cells transfected with intracellular isoform of IL-1 receptor antagonist type 1 (HF-icIL-1ra) were treated with varying concentrations of antisense oligonucleotide directed against the intracellular isoform of IL-1 receptor antagonist type 1 mRNA. Oligonucleotide with a scrambled sequence was used as control. Both oligonucleotides were mixed with LipofectAMINE™ reagent to enhance cellular uptake.
Using the approach described in Example 5, a phosphorothioate-derivatized antisense oligodeoxynucleotide complimentary to −6 to +12 (5′-CGTCTGTAAAGGCATGGG-3′ SEQ ID NO: 41) of the natural icIL-1ra type 1 was synthesized and RHPLC purified. […]

Setting [7] is: IL1β (100 pg/mL) + peptide 100 ng/mL.
Where [8] appears, read: IL1β (100 pg/mL) + peptide 1 μg/mL.
Where [9] appears, read: IL1β (100 pg/mL) + peptide 10 μg/mL.

“Also recorded” adds a separate entry of the source.

“LVAGYLQG (IL-1ra peptides) [SEQ ID NO: 24]”: the Collagenase in data set [1] (setting [7]) worked out at 857 ng/mL; in data set [1] (setting [8]), 841 ng/mL; in data set [1] (setting [9]), 749 ng/mL.
Consider “KKKMEKRLVAGYLQG (IL-1ra peptide) [NLS IL-1ra 30-37]”, for which the “suppression of CIA, mean arthritic score” value in data set [2] (listed as NSL IL-1ra 30-37) is recorded as “suppressed CIA”; in data set [2] (listed as NSL-sIL-1ra 30-37), “effective in reducing arthritis”.
Consider “KKKMEKRRPSGRKSSKMQAFRIWDVNQKTFYLRNNQLVAGYL (IL-1ra peptides) [NLS-IL-1ra]”, for which the “suppression of CIA, mean arthritic score” value in data set [2] is “suppressed CIA”. Further, the Collagenase in data set [3] (TNF alpha (5 ng/ml) + peptide 100 pg/ml) is on record as 243 ng/mL; in data set [3] (TNF alpha (5 ng/ml) + peptide 1 ng/ml), 238 ng/mL; in data set [3] (TNF alpha (5 ng/ml) + peptide 10 ng/ml), 1199 ng/mL; in data set [3] (TNF alpha (5 ng/ml) + peptide 100 ng/ml), 1254 ng/mL; in data set [3] (TNF alpha (5 ng/ml) + peptide 1 μg/ml), 849 ng/mL; in data set [5] (bFGF (5 ng/ml) + peptide 100 pg/ml), 2367 ng/mL. Further, the Collagenase in data set [5] (bFGF (5 ng/ml) + peptide 1 ng/ml) was found to be 2541 ng/mL; in data set [5] (bFGF (5 ng/ml) + peptide 10 ng/ml) it was 3167 ng/mL; in data set [5] (bFGF (5 ng/ml) + peptide 100 ng/ml) it was 3199 ng/mL; in data set [5] (bFGF (5 ng/ml) + peptide 1 μg/ml), 5649 ng/mL. Further, the “incidence and severity of arthritis” value in data set [4] (osmotic pump from day 20, 50 μg peptide/day for 4 weeks, vs D5W solvent, listed as NLS-IL-1ra 1-35) is “reduced; also recorded: reduces incidence and severity of arthritis”. In data set [4] (osmotic pump, incidence and severity reached control levels after this time), the “delay of the onset of arthritis” value came to 20 days.
For “MQAFRIWDVNQKTFYLR (IL-1ra peptides) [SEQ ID NO: 20]”, the figures for the Collagenase in data set [1] (setting [7]), in data set [1] (setting [8]) and in data set [1] (setting [9]) were 2644 ng/mL, 2139 ng/mL and 2036 ng/mL, respectively.
With “5′-CGTCTGTAAAGGCATGGG-3′ (DNA, all phosphorothioate, methylation of C not given here)”, in data set [6] (FIG. 36), the “reduced expression of MMP-1 mRNA and protein in icIL-1ra transfected fibroblasts” value is “reversed”. The “MMP-1 mRNA levels” value in data set [6] (200 mM antisense, 1.0 ng/ml hrIL-1β) is “significantly higher”; in data set [6] (300 mM antisense with LipofectAMINE, IL-1β stimulated, p=0.001) it was “significantly higher”.
With “NNQLVAGY (IL-1ra peptides) [SEQ ID NO: 23]”, the results for the Collagenase in data set [1] (setting [7]), in data set [1] (setting [8]) and in data set [1] (setting [9]) were 541 ng/mL, 619 ng/mL and 1078 ng/mL, respectively.
In the same order, the values of “FYLRNNQ (IL-1ra peptides) [SEQ ID NO: 22]” are 1514 ng/mL, 1827 ng/mL and 1881 ng/mL.
Regarding “RPSGRKSSKMQAFRI (IL-1ra peptides) [SEQ ID NO: 19]”, the Collagenase in data set [1] (setting [7]) is reported as 1746 ng/mL; in data set [1] (setting [8]), 1152 ng/mL; in data set [1] (setting [9]), 1267 ng/mL.
For “FYLRNNQLVAGYLQG (IL-1ra peptides) [SEQ ID NO: 21]”, the Collagenase in data set [1] (setting [7]) is 2142 ng/mL; in data set [1] (setting [8]) it was 2361 ng/mL; in data set [1] (setting [9]), 2581 ng/mL.
